Experimental data reported in US9133155B2, “Antibacterial agents: high-potency myxopyronin derivatives” (Rutgers, The State University of New Jersey, priority 2010, dated 2015).
In brackets after ≈: the same amount, converted by molar mass. Where two headings read alike, the source gives them in different places.

Legend:
[1] = target: E. coli RNA polymerase σ^70 holoenzyme (Escherichia coli, UniProt P0A8T7+P0A8V2); test: Inhibition of Escherichia coli RNA polymerase (fluorescence-detected); format: biochemical; conditions: read-out: IC50 E. coli RNAP
Experimental: (§1) Fluorescence-detected RNA polymerase assays with E. coli RNA polymerase were performed by a modification of the procedure of Kuhlman et al., 2004 [Kuhlman, P., Duff, H. & Galant, A. (2004) A fluorescence-based assay for multisubunit DNA-dependent RNA polymerases. Anal. Biochem. 324, 183-190]. Reaction mixtures contained (20 μl): 0-100 nM test compound, 75 nM E. coli RNA polymerase σ^70 holoenzyme, 20 nM 384 bp DNA fragment containing the bacteriophage T4 N25 promoter, 100 μM ATP, 100 μM GTP, 100 μM UTP, 100 μM CTP, 50 mM Tris-HCl, pH 8.0, 100 mM KCl, 10 mM MgCl2, 1 mM DTT, 10 μg/ml bovine serum albumin, and 5.5% glycerol. Reaction components other than DNA and NTPs were pre-incubated for 10 min at 37° C. Reactions were carried out by addition of DNA and incubation for 5 min at 37° C., followed by addition of NTPs and incubation for 60 min at 37° C. DNA was removed by addition of 1 μl 5 mM CaCl2 and 2 U DNaseI (Ambion, Inc.), followed by incubation for 90 min at 37° C. RNA was quantified by addition of 100 μl RiboGreen RNA Quantitation Reagent (Invitrogen, Inc.; 1:500 dilution in Tris-HCl, pH 8.0, 1 mM EDTA), followed by incubation for 10 min at 25° C., followed by measurement of fluorescence intensity [excitation wavelength=485 nm and emission wavelength=535 nm; QuantaMaster QM1 spectrofluorometer (PTI, Inc.)].

[2] = target: M. tuberculosis RNA polymerase (Mycobacterium tuberculosis, UniProt P9WGY7+P9WGY9); test: Inhibition of Mycobacterium tuberculosis RNA polymerase (fluorescence-detected); format: biochemical
Experimental: as §1
Fluorescence-detected RNA polymerase assays with M. tuberculosis RNA polymerase were performed as in Example 17.1, using reaction mixtures containing (20 μl): 0-100 nM test compound, 75 nM M. tuberculosis RNA polymerase core enzyme, 300 nM M. tuberculosis σ^A, 20 nM 384 bp DNA fragment containing the bacteriophage […] N25 promoter, 100 μM ATP, 100 μM GTP, 100 μM UTP, 100 μM CTP, 40 mM Tris-HCl, pH 8.0, 80 mM NaCl, 5 mM MgCl2, 2.5 mM DTT, and 12.7% glycerol.

[3] = test system: Staphylococcus aureus ATCC 12600; test: Inhibition of bacterial growth in culture (MIC, spiral gradient endpoint); format: cell-based; conditions: for MIC: Staphylococcus aureus, ATCC12600, Mueller-Hinton II agar, 16 h at 37° C., read-out: MIC S. aureus 12600; for inhibition of Staphylococcus aureus compared with Myx B and 7-desmethyl-Myx B: summary of Table 3
Description: (§2) Minimum inhibitory concentrations (MICs) for Staphylococcus aureus ATCC 12600, Enterococcus faecalis ATCC 19433, Acinetobacter baumannii ATCC 19606, and Escherichia coli D21f2tolC were quantified using spiral gradient endpoint assays, essentially as described [Wallace, A. and Corkill, J. (1989) Application of the spiral plating method to study antimicrobial action. J. Microbiol. Meths. […] Int. J. Exp. Clin. Chemother. 3, 31-38; Schalkowsky S. (1994) Measures of susceptibility from a spiral gradient of drug concentrations. Adv. Exp. Med. Biol. 349, 107-120]. Assays employed exponential-gradient plates containing 150 mm×4 mm Mueller-Hinton II cation-adjusted agar and 0.4-100 μg/ml of test compound. Plates were prepared using an Autoplate 4000 spiral plater (Spiral Biotech, Inc.). Saturated overnight cultures were swabbed radially onto plates, and plates were incubated for 16 h at 37° C. For each culture, the streak length was measured using a clear plastic template (Spiral Biotech, Inc.), the test-compound concentration at the streak endpoint was calculated using the program SGE (Spiral Biotech, Inc.), and the MIC was defined as the calculated test-compound concentration at the streak endpoint.

[4] = test system: Acinetobacter baumannii ATCC 19606; test: as above; format: cell-based; conditions: for MIC: Acinetobacter baumannii, ATCC19606, Mueller-Hinton II agar, 16 h at 37° C.
Description: as §2

[5] = test system: Enterococcus faecalis ATCC 19433; test: as above; format: cell-based; conditions: for MIC: Enterococcus faecalis, ATCC19433, Mueller-Hinton II agar, 16 h at 37° C., read-out: MIC E. faecalis 19433
Description: as §2

[6] = test system: Escherichia coli D21f2tolC; test: as above; format: cell-based; conditions: 16 h, read-out: MIC E. coli D21f2tolC
Description: as §2

S. aureus RNA polymerase = S. aureus RNA polymerase (Staphylococcus aureus, UniProt P47768+Q2G0N5); test: Inhibition of Staphylococcus aureus RNA polymerase (fluorescence-detected); format: biochemical
Staphylococcus aureus = test: Antibacterial efficacy in mouse model of Staphylococcus aureus systemic infection (peritonitis model); format: in vivo, Swiss Webster mice
Experimental: (§3) Female Swiss Webster mice were experimentally infected by intraperitoneal administration of 5×10^7 colony forming units of Staphylococcus aureus in 10% hog gastric mucin. Test compounds (2-3 mg/ml in vehicle [9-19% dimethyacetamide/8-16% Cremophor EL in water, v/v]), positive controls (2 mg/ml vancomycin in vehicle), and negative controls (vehicle only and saline only), were administered by intravenous injection into a tail vein 1 h and 5 h post-infection (200 μl per injection). Survival was monitored for 12 h post-infection, or for 24, 48, and 72 h post-infection. At the end of the monitoring period, surviving animals were euthanized.

[7] = Tolerability upon intravenous injection (peritonitis model study); format: in vivo, Swiss Webster mice; conditions: daily total doses of at least 30 mg/kg; vehicles containing 9% to 19% dimethylacetamide and 8% to 16% Cremophor EL
Experimental: as §3

[8] = read-out: IC50 M. tuberculosis RNAP
[9] = Table 4a, total dose 30 mg/kg iv, 1 h and 5 h post-infection, vehicle 19% dimethylacetamide/8% Cremophor EL/73% water
[10] = Table 4c, total dose 30 mg/kg iv, vehicle 9% dimethylacetamide/8% Cremophor EL/83% water

M. tuberculosis RNA polymerase, sequence (P9WGY5 whole entry): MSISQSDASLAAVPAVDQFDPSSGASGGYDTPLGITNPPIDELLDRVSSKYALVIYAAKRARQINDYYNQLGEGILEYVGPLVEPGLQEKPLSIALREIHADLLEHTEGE
M. tuberculosis RNA polymerase, sequence (P9WGZ1 whole entry, further chain): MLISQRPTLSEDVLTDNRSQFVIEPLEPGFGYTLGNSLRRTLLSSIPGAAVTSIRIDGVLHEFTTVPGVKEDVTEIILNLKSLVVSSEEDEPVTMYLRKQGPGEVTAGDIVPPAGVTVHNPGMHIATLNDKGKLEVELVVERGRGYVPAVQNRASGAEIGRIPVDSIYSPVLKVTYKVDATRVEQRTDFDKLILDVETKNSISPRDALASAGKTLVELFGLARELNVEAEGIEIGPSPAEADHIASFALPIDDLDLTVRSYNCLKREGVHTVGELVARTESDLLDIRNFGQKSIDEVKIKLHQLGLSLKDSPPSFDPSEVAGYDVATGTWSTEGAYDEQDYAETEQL
M. tuberculosis RNA polymerase, sequence (P9WGY9 whole entry): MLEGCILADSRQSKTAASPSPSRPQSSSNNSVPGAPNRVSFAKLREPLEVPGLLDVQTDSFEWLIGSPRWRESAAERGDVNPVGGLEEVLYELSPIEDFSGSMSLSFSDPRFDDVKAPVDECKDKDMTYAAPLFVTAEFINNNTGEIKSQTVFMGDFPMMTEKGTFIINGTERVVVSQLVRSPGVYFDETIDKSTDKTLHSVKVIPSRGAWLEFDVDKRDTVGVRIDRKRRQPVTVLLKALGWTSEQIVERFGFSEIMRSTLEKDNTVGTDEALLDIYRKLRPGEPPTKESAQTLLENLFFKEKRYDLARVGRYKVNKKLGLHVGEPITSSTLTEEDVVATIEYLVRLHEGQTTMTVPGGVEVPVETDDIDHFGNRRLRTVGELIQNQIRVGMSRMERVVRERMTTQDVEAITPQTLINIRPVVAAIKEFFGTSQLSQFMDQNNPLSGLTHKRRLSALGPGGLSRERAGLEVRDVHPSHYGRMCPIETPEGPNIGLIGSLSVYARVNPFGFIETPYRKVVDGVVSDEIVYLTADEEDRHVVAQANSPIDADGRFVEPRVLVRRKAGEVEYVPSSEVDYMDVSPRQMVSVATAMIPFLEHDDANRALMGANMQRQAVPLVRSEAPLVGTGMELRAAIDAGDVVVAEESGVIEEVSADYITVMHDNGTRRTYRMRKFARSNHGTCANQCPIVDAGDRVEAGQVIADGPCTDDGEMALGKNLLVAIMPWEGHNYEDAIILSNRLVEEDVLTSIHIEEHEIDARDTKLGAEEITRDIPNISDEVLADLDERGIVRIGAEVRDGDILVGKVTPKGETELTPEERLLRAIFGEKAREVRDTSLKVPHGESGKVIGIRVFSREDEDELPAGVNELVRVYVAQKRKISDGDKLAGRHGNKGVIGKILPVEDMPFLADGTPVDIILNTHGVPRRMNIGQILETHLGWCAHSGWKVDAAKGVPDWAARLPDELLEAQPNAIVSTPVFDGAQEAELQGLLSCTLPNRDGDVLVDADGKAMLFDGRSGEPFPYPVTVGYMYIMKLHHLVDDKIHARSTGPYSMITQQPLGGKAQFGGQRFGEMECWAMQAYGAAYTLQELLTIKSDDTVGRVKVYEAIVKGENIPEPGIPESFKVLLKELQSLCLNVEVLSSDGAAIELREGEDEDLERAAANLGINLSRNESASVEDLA
M. tuberculosis RNA polymerase, sequence (P9WGY7 whole entry): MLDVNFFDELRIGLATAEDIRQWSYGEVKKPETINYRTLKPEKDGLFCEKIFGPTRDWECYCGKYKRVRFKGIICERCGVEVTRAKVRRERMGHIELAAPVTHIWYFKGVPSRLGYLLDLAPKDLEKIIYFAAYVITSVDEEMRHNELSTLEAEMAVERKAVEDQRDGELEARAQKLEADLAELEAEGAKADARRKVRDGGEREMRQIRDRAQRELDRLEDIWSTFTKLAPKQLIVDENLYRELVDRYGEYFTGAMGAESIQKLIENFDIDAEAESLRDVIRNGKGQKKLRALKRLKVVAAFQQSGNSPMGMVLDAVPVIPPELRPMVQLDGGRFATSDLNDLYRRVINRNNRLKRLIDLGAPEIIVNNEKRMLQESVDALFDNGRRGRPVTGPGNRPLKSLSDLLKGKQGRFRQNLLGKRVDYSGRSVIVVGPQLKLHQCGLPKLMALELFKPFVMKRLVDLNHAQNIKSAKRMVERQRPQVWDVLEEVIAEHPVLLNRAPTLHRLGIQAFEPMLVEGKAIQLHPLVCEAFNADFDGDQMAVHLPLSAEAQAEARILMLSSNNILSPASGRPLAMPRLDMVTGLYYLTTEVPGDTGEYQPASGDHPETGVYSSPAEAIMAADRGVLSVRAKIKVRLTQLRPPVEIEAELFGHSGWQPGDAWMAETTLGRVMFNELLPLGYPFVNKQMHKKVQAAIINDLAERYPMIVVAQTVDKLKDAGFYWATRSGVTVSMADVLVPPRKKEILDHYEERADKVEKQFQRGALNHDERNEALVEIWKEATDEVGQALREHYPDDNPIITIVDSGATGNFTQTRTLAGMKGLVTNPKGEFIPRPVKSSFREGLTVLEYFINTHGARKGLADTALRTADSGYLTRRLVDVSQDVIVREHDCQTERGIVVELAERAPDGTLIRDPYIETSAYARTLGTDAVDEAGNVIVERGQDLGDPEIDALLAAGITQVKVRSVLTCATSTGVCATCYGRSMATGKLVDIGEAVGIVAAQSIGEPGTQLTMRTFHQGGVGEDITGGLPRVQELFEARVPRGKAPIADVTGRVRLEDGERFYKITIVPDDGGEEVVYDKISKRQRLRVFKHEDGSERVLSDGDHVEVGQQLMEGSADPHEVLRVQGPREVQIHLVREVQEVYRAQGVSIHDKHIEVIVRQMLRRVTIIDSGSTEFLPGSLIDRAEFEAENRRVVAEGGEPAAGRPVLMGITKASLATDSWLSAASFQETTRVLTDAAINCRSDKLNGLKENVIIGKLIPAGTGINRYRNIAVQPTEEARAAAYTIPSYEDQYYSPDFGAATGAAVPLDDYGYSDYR
M. tuberculosis RNA polymerase, sequence (P9WGI1 whole entry, further chain): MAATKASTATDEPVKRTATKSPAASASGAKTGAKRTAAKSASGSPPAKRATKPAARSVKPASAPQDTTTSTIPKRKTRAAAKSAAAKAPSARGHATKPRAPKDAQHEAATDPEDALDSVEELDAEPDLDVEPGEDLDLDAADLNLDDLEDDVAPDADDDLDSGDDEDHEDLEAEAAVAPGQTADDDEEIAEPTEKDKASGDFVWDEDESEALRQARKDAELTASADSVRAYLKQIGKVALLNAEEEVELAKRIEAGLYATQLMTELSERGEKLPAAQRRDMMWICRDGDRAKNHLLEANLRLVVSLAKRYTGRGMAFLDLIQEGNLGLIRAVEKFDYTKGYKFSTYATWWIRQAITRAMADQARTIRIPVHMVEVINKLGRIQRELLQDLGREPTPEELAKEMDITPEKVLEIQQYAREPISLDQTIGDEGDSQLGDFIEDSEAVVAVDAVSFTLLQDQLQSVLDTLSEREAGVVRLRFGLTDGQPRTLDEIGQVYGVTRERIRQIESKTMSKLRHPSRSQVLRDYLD

## CCCCCCCC/C=C/C=C(\C)C(=O)c1c(O)cc([C@H](C)CC/C=C/NC(=O)OC)oc1=O (racemic) [compound 4, methyl ((E)-5-(4-hydroxy-3-((2E,4E)-2-methyltrideca-2,4-dienoyl)-2-oxo-2H-pyran-6-yl)hex-1-enyl)carbamate]
[1]
  IC50: 4.6 nM
[2]; [8]
  IC50: 320 nM
[3]
  MIC: 9.4 µg/mL (≈ 19.8 µM)
[4]
  MIC: 3.1 µg/mL (≈ 6.55 µM)
[5]
  MIC: > 40 µg/mL
[6]
  MIC: < 0.18 µg/mL
S. aureus RNA polymerase; read-out: IC50 S. aureus RNAP
  IC50: 8.3 nM

## CCCC/C(C)=C/C=C(\C)C(=O)c1c(O)cc(CCC/C=C/NC(=O)OC)oc1=O [7-desmethyl-Myx B, Methyl ((E)-5-(3-((2E,4E)-2,5-dimethylnona-2,4-dienoyl)-4-hydroxy-2-oxo-2H-pyran-6-yl)pent-1-en-1-yl)carbamate, reference compound]
[1]
  IC50: 22 nM
[2]
  IC50: 81 nM
[3]
  MIC: 3.1 µg/mL (≈ 7.43 µM)
[4]
  MIC: > 40 µg/mL
[4]; summary of Table 3
  inhibition of Acinetobacter baumannii (in words): not detectably inhibited
[5]
  MIC: 25 µg/mL (≈ 59.9 µM)
[6]
  MIC: 0.195 µg/mL (≈ 0.467 µM)
S. aureus RNA polymerase
  IC50: 140 nM

## CCCCC/C=C/C=C(\C)C(=O)c1c(O)cc(C(C)CC/C=C/NC(=O)OC)oc1=O (centres unmarked) [compound 1, Methyl ((E)-5-(4-hydroxy-3-((2E,4E)-2-methyldeca-2,4-dienoyl)-2-oxo-2H-pyran-6-yl)hex-1-en-1-yl)carbamate]
[1]
  IC50: 12 nM
[2]; [8]
  IC50: 85 nM
[3]
  MIC: 1.4 µg/mL (≈ 3.24 µM)
[4]
  MIC: > 40 µg/mL
[5]
  MIC: > 40 µg/mL
[6]
  MIC: 0.3 µg/mL (≈ 0.695 µM)
S. aureus RNA polymerase; read-out: IC50 S. aureus RNAP
  IC50: 52 nM

## CCCCCC/C=C/C=C(\C)C(=O)c1c(O)cc(C(C)CC/C=C/NC(=O)OC)oc1=O (centres unmarked) [compound 2, Methyl ((E)-5-(4-hydroxy-3-((2E,4E)-2-methylundeca-2,4-dienoyl)-2-oxo-2H-pyran-6-yl)hex-1-en-1-yl)carbamate]
[1]
  IC50: 11 nM
[2]; [8]
  IC50: 70 nM
[3]
  MIC: 1.4 µg/mL (≈ 3.14 µM)
[4]
  MIC: 25 µg/mL (≈ 56.1 µM)
[5]
  MIC: > 40 µg/mL
[6]
  MIC: 0.23 µg/mL (≈ 0.516 µM)
S. aureus RNA polymerase; read-out: IC50 S. aureus RNAP
  IC50: 23 nM

## CCCCCCC/C=C/C=C(\C)C(=O)c1c(O)cc(C(C)CC/C=C/NC(=O)OC)oc1=O (centres unmarked) [compound 3, Methyl ((E)-5-(4-hydroxy-3-((2E,4E)-2-methyldodeca-2,4-dienoyl)-2-oxo-2H-pyran-6-yl)hex-1-en-1-yl)carbamate]
[1]
  IC50: 6.8 nM
[2]; [8]
  IC50: 270 nM
[3]
  MIC: 2.4 µg/mL (≈ 5.22 µM)
[4]
  MIC: 5.6 µg/mL (≈ 12.2 µM)
[5]
  MIC: > 40 µg/mL
[6]
  MIC: < 0.18 µg/mL
S. aureus RNA polymerase; read-out: IC50 S. aureus RNAP
  IC50: 17 nM

## CCCCCC/C(C)=C/C=C(\C)C(=O)c1c(O)cc(CCC/C=C/NC(=O)OC)oc1=O [compound 6, Methyl ((E)-5-(3-((2E,4E)-2,5-dimethylundeca-2,4-dienoyl)-4-hydroxy-2-oxo-2H-pyran-6-yl)pent-1-en-1-yl)carbamate]
[1]
  IC50: 3.9 nM
[2]; [8]
  IC50: 47 nM
[3]
  MIC: 0.45 µg/mL (≈ 1.01 µM)
  inhibition of Staphylococcus aureus compared with Myx B and 7-desmethyl-Myx B: more potently than Myx B and 7-desmethyl-Myx B
[4]
  MIC: 5.5 µg/mL (≈ 12.3 µM)
[5]
  MIC: 13 µg/mL (≈ 29.2 µM)
[6]
  MIC: 0.076 µg/mL (≈ 0.171 µM)
S. aureus RNA polymerase; read-out: IC50 S. aureus RNAP
  IC50: 12 nM

## CCCCCC/C(C)=C/C=C(\C)C(=O)c1c(O)cc(CCC/C=C/NC(=O)OCC)oc1=O [compound 7, Ethyl ((E)-5-(3-((2E,4E)-2,5-dimethylundeca-2,4-dienoyl)-4-hydroxy-2-oxo-2H-pyran-6-yl)pent-1-en-1-yl)carbamate]
[1]
  IC50: 63 nM
[2]; [8]
  IC50: 450 nM
[3]
  MIC: 12 µg/mL (≈ 26.1 µM)
[4]
  MIC: > 40 µg/mL
[5]
  MIC: > 40 µg/mL
[6]
  MIC: 0.37 µg/mL (≈ 0.805 µM)
S. aureus RNA polymerase; read-out: IC50 S. aureus RNAP
  IC50: 93 nM

## CCCCC/C(C)=C/C=C(\C)C(=O)c1c(O)cc(C(C)CC/C=C/NC(=O)OC)oc1=O (centres unmarked) [compound 8, Methyl ((E)-5-(3-((2E,4E)-2,5-dimethyldeca-2,4-dienoyl)-4-hydroxy-2-oxo-2H-pyran-6-yl)hex-1-en-1-yl)carbamate]
Staphylococcus aureus; [9]
  12-hour survival: 75%
Staphylococcus aureus; summary of Tables 4a-4c
  effect on survival in a mouse model of Staphylococcus aureus infection (in words): increase survival
[1]
  IC50: 4 nM
[2]; [8]
  IC50: 19 nM
[3]
  MIC: 0.5 µg/mL (≈ 1.12 µM)
  inhibition of Staphylococcus aureus compared with Myx B and 7-desmethyl-Myx B: more potently than Myx B and 7-desmethyl-Myx B
[7]
  acute toxicity upon intravenous injection: tolerated without acute toxicity
S. aureus RNA polymerase; read-out: IC50 S. aureus RNAP
  IC50: 9.2 nM

## CCCCCC/C(C)=C/C=C(\C)C(=O)c1c(O)cc(C(C)CC/C=C/NC(=O)OC)oc1=O (centres unmarked) [compound 9, Methyl ((E)-5-(3-((2E,4E)-2,5-dimethylundeca-2,4-dienoyl)-4-hydroxy-2-oxo-2H-pyran-6-yl)hex-1-en-1-yl)carbamate]
[1]
  IC50: 4.7 nM
[2]; [8]
  IC50: 36 nM
[3]
  MIC: 0.34 µg/mL (≈ 0.74 µM)
  inhibition of Staphylococcus aureus compared with Myx B and 7-desmethyl-Myx B: more potently than Myx B and 7-desmethyl-Myx B
[4]
  MIC: 5.5 µg/mL (≈ 12 µM)
[5]
  MIC: 6.4 µg/mL (≈ 13.9 µM)
[5]; summary of Table 3
  inhibition of Enterococcus faecalis compared with Myx B and 7-desmethyl-Myx B: more potently than Myx B and 7-desmethyl-Myx B
[6]
  MIC: 0.076 µg/mL (≈ 0.165 µM)
S. aureus RNA polymerase; read-out: IC50 S. aureus RNAP
  IC50: 13 nM

## CCCCC/C(C)=C\C=C(/C)C(=O)c1c(O)cc(CCC/C=C/NC(=O)OC)oc1=O [compound 10, Methyl ((E)-5-(3-((2E,4Z)-2,5-dimethyldeca-2,4-dienoyl)-4-hydroxy-2-oxo-2H-pyran-6-yl)pent-1-en-1-yl)carbamate]
[1]
  IC50: 40 nM
[2]; [8]
  IC50: 340 nM
[3]
  MIC: 3.3 µg/mL (≈ 7.65 µM)
[4]
  MIC: > 40 µg/mL
[5]
  MIC: > 40 µg/mL
[6]
  MIC: 0.39 µg/mL (≈ 0.904 µM)
S. aureus RNA polymerase; read-out: IC50 S. aureus RNAP
  IC50: 100 nM

## CN[C@H](CC(C)C)C(=O)N[C@H]1C(=O)N[C@@H](CC(N)=O)C(=O)N[C@H]2C(=O)N[C@H]3C(=O)N[C@H](C(=O)N[C@H](C(=O)O)c4cc(O)cc(O)c4-c4cc3ccc4O)[C@H](O)c3ccc(c(Cl)c3)Oc3cc2cc(c3O[C@@H]2O[C@H](CO)[C@@H](O)[C@H](O)[C@H]2O[C@H]2C[C@](C)(N)[C@H](O)[C@H](C)O2)Oc2ccc(cc2Cl)[C@H]1O [vancomycin]
Staphylococcus aureus; [9]
  12-hour survival: 100%
Staphylococcus aureus; Table 4b, total dose 30 mg/kg iv, vehicle 19% dimethylacetamide/16% Cremophor EL/73% water
  12-hour survival: 100%
Staphylococcus aureus; [10]
  24-hour survival: 100%
  48-hour survival: 100%
  72-hour survival: 100%
